“And” between values parts separate entries of the source, which are not always exact repeats. Equal entries are not always repeated. Numbers after ± are expanded uncertainties.
Settings: Liquid, Alternating current cell with electrodes

## CCCCCCCC[n+]1ccn(C)c1.F[B-](F)(F)F [1-methyl-3-octylimidazolium tetrafluoroborate]
273.23 K, 101.33 kPa
  electrical conductivity: 0.00961 ± 0.00058 S/m
273.37 K, 101.33 kPa
  electrical conductivity: 0.00973 S/m and 0.00997 S/m
278.15 K, 101.33 kPa
  electrical conductivity: 0.0144 S/m and 0.0148 S/m
283.15 K, 101.33 kPa
  electrical conductivity: 0.0211 S/m and 0.0218 S/m and 0.0212 S/m
288.15 K, 101.33 kPa
  electrical conductivity: 0.0303 S/m and 0.0305 S/m
288.16 K, 101.33 kPa
  electrical conductivity: 0.0312 ± 0.0019 S/m
293.15 K, 101.33 kPa
  electrical conductivity: 0.0435 S/m and 0.0423 S/m
293.16 K, 101.33 kPa
  electrical conductivity: 0.0427 ± 0.0026 S/m
298.15 K, 100 kPa
  electrical conductivity: 0.0587 ± 0.0036 S/m
298.15 K, 101.33 kPa
  electrical conductivity: 0.0584 S/m [middle of 5 runs]
298.15 K, 24500 kPa
  electrical conductivity: 0.0441 ± 0.0027 S/m
298.15 K, 49500 kPa
  electrical conductivity: 0.0333 ± 0.002 S/m
298.15 K, 73500 kPa
  electrical conductivity: 0.0257 ± 0.0016 S/m
298.15 K, 98400 kPa
  electrical conductivity: 0.0197 ± 0.0012 S/m
298.15 K, 122900 kPa
  electrical conductivity: 0.0152 ± 0.00093 S/m
298.15 K, 147100 kPa
  electrical conductivity: 0.012 ± 0.00073 S/m
298.15 K, 171600 kPa
  electrical conductivity: 0.00941 ± 0.00058 S/m
298.15 K, 196100 kPa
  electrical conductivity: 0.00742 ± 0.00046 S/m
298.16 K, 101.33 kPa
  electrical conductivity: 0.058 ± 0.0035 S/m
303.15 K, 101.33 kPa
  electrical conductivity: 0.076 S/m and 0.0794 S/m and 0.0775 S/m
308.15 K, 101.33 kPa
  electrical conductivity: 0.0992 S/m and 0.104 S/m and 0.102 S/m
313.15 K, 101.33 kPa
  electrical conductivity: 0.127 S/m and 0.131 S/m and 0.132 S/m
318.15 K, 101.33 kPa
  electrical conductivity: 0.16 S/m and 0.165 S/m and 0.167 S/m
323.11 K, 101.33 kPa
  electrical conductivity: 0.198 S/m and 0.205 S/m
323.13 K, 101.33 kPa
  electrical conductivity: 0.2 ± 0.012 S/m
323.15 K, 100 kPa
  electrical conductivity: 0.203 ± 0.013 S/m
323.15 K, 24500 kPa
  electrical conductivity: 0.162 ± 0.0099 S/m
323.15 K, 49300 kPa
  electrical conductivity: 0.13 ± 0.0079 S/m
323.15 K, 73500 kPa
  electrical conductivity: 0.106 ± 0.0064 S/m
323.15 K, 98100 kPa
  electrical conductivity: 0.0853 ± 0.0052 S/m
323.15 K, 122600 kPa
  electrical conductivity: 0.0695 ± 0.0042 S/m
323.15 K, 147600 kPa
  electrical conductivity: 0.0567 ± 0.0034 S/m
323.15 K, 171600 kPa
  electrical conductivity: 0.0468 ± 0.0028 S/m
323.15 K, 196100 kPa
  electrical conductivity: 0.0386 ± 0.0024 S/m
328.15 K, 101.33 kPa
  electrical conductivity: 0.244 S/m and 0.252 S/m
328.19 K, 101.33 kPa
  electrical conductivity: 0.246 ± 0.015 S/m
333.11 K, 101.33 kPa
  electrical conductivity: 0.304 ± 0.018 S/m
333.12 K, 101.33 kPa
  electrical conductivity: 0.294 ± 0.018 S/m
333.16 K, 101.33 kPa
  electrical conductivity: 0.298 ± 0.018 S/m
338.12 K, 101.33 kPa
  electrical conductivity: 0.355 ± 0.021 S/m
338.2 K, 101.33 kPa
  electrical conductivity: 0.353 S/m and 0.364 S/m
343.16 K, 101.33 kPa
  electrical conductivity: 0.42 ± 0.025 S/m
343.2 K, 101.33 kPa
  electrical conductivity: 0.416 S/m and 0.43 S/m
348.15 K, 100 kPa
  electrical conductivity: 0.486 ± 0.029 S/m
348.15 K, 24500 kPa
  electrical conductivity: 0.406 ± 0.025 S/m
348.15 K, 49000 kPa
  electrical conductivity: 0.339 ± 0.021 S/m
348.15 K, 73500 kPa
  electrical conductivity: 0.287 ± 0.017 S/m
348.15 K, 98400 kPa
  electrical conductivity: 0.242 ± 0.015 S/m
348.15 K, 122600 kPa
  electrical conductivity: 0.206 ± 0.012 S/m
348.15 K, 147100 kPa
  electrical conductivity: 0.175 ± 0.011 S/m
348.15 K, 171600 kPa
  electrical conductivity: 0.149 ± 0.009 S/m
348.15 K, 196100 kPa
  electrical conductivity: 0.128 ± 0.0077 S/m
348.16 K, 101.33 kPa
  electrical conductivity: 0.485 ± 0.029 S/m
348.17 K, 101.33 kPa
  electrical conductivity: 0.502 ± 0.03 S/m
348.24 K, 101.33 kPa
  electrical conductivity: 0.494 ± 0.03 S/m
353.15 K, 101.33 kPa
  electrical conductivity: 0.561 S/m and 0.581 S/m
353.21 K, 101.33 kPa
  electrical conductivity: 0.572 ± 0.034 S/m

## CCCCCCCC[n+]1ccn(C)c1.F[P-](F)(F)(F)(F)F [1-octyl-3-methylimidazolium hexafluorophosphate]
273.2 K, 101.33 kPa
  electrical conductivity: 0.00325 ± 0.0002 S/m
273.22 K, 101.33 kPa
  electrical conductivity: 0.00331 ± 0.0002 S/m
278.15 K, 101.33 kPa
  electrical conductivity: 0.0053 S/m and 0.0052 S/m
283.15 K, 101.33 kPa
  electrical conductivity: 0.00823 S/m and 0.00822 S/m and 0.00807 S/m
288.15 K, 101.33 kPa
  electrical conductivity: 0.0121 ± 0.00073 S/m
288.16 K, 101.33 kPa
  electrical conductivity: 0.0124 S/m
293.15 K, 101.33 kPa
  electrical conductivity: 0.0181 S/m and 0.0182 S/m and 0.0177 S/m
298.15 K, 100 kPa
  electrical conductivity: 0.0263 ± 0.0016 S/m
298.15 K, 101.33 kPa
  electrical conductivity: 0.0257 S/m [middle of 4 runs]
298.15 K, 19600 kPa
  electrical conductivity: 0.0202 ± 0.0012 S/m
298.15 K, 39200 kPa
  electrical conductivity: 0.0154 ± 0.00095 S/m
298.15 K, 49500 kPa
  electrical conductivity: 0.0134 ± 0.00083 S/m
298.15 K, 59100 kPa
  electrical conductivity: 0.0117 ± 0.00072 S/m
298.15 K, 78500 kPa
  electrical conductivity: 0.00918 ± 0.00057 S/m
298.15 K, 98100 kPa
  electrical conductivity: 0.00712 ± 0.00044 S/m
303.15 K, 101.33 kPa
  electrical conductivity: 0.036 S/m and 0.0353 S/m and 0.0358 S/m
308.15 K, 101.33 kPa
  electrical conductivity: 0.0479 S/m and 0.048 S/m
308.16 K, 101.33 kPa
  electrical conductivity: 0.0493 S/m and 0.0489 S/m
313.15 K, 101.33 kPa
  electrical conductivity: 0.0655 S/m and 0.0653 S/m
313.16 K, 101.33 kPa
  electrical conductivity: 0.0659 S/m and 0.0654 S/m
318.15 K, 101.33 kPa
  electrical conductivity: 0.0863 S/m [middle of 4 runs]
323.11 K, 101.33 kPa
  electrical conductivity: 0.108 ± 0.0065 S/m
323.13 K, 101.33 kPa
  electrical conductivity: 0.11 ± 0.0066 S/m
323.15 K, 100 kPa
  electrical conductivity: 0.107 ± 0.0069 S/m
323.15 K, 101.33 kPa
  electrical conductivity: 0.111 S/m
323.15 K, 24200 kPa
  electrical conductivity: 0.0814 ± 0.005 S/m
323.15 K, 49000 kPa
  electrical conductivity: 0.0625 ± 0.0038 S/m
323.15 K, 73500 kPa
  electrical conductivity: 0.0483 ± 0.0029 S/m
323.15 K, 98100 kPa
  electrical conductivity: 0.0375 ± 0.0023 S/m
323.15 K, 122600 kPa
  electrical conductivity: 0.0292 ± 0.0018 S/m
323.15 K, 147100 kPa
  electrical conductivity: 0.0229 ± 0.0014 S/m
323.15 K, 171300 kPa
  electrical conductivity: 0.0181 ± 0.0011 S/m
323.15 K, 196100 kPa
  electrical conductivity: 0.0143 ± 0.0009 S/m
328.11 K, 101.33 kPa
  electrical conductivity: 0.142 ± 0.0085 S/m
328.12 K, 101.33 kPa
  electrical conductivity: 0.141 ± 0.0085 S/m
328.13 K, 101.33 kPa
  electrical conductivity: 0.136 S/m and 0.137 S/m
333.11 K, 101.33 kPa
  electrical conductivity: 0.17 S/m
333.19 K, 101.33 kPa
  electrical conductivity: 0.173 ± 0.01 S/m
338.18 K, 101.33 kPa
  electrical conductivity: 0.209 S/m and 0.21 S/m
343.16 K, 101.33 kPa
  electrical conductivity: 0.254 ± 0.015 S/m
343.17 K, 101.33 kPa
  electrical conductivity: 0.253 ± 0.015 S/m
348.15 K, 100 kPa
  electrical conductivity: 0.29 ± 0.018 S/m
348.15 K, 24500 kPa
  electrical conductivity: 0.233 ± 0.014 S/m
348.15 K, 49300 kPa
  electrical conductivity: 0.188 ± 0.011 S/m
348.15 K, 73500 kPa
  electrical conductivity: 0.152 ± 0.0092 S/m
348.15 K, 98100 kPa
  electrical conductivity: 0.124 ± 0.0075 S/m
348.15 K, 122600 kPa
  electrical conductivity: 0.101 ± 0.0061 S/m
348.15 K, 147100 kPa
  electrical conductivity: 0.083 ± 0.005 S/m
348.15 K, 171600 kPa
  electrical conductivity: 0.0681 ± 0.0041 S/m
348.15 K, 195800 kPa
  electrical conductivity: 0.0562 ± 0.0034 S/m
348.17 K, 101.33 kPa
  electrical conductivity: 0.304 ± 0.018 S/m
348.18 K, 101.33 kPa
  electrical conductivity: 0.303 ± 0.018 S/m
353.17 K, 101.33 kPa
  electrical conductivity: 0.358 S/m and 0.36 S/m
